Experimental findings from patent US11304913B2, “Analgesic compositions” (Vapogenix, Inc., priority 2013, dated 2022) are described below.

This data set is classed as physicochemical. Here is the method: A time-dependent evaporation study was performed with a composition of the invention (FIG. 3). Isoflurane alone was used as the control in the experiment.

The molecule `FC(F)OC(Cl)C(F)(F)F` (centres unmarked) [isoflurane] registered an original weight remaining (0.75 h) of 86.8%. Moreover, under “after 45 minutes of experiment”, the “lost due to evaporation” value is recorded as 13.2%.
